Assay results: BigSolDB 2.1

Oc1ccc(/C=C/c2cc(O)cc(O)c2)cc1
solubility (mole fraction)
Details | 288.15 K | 293.15 K | 298.15 K | 303.15 K | 308.15 K | 313.15 K
in transcutol | 0.148 | 0.15 | 0.153 | 0.156 | 0.159 | 0.161
in water | 1.29e-06 | 1.91e-06 | 2.78e-06 | 4e-06 | 5.74e-06 | 8.03e-06
